From US10501479B2, “Benzenesulfonyl-asymmetric ureas and medical uses thereof” (HELSINN HEALTHCARE SA, priority 2016, dated 2019)
Structures can show the parent of a compound that is named as a salt. Where two headings read alike, the source gives them in different places.

Experiments:
Format in all cases: cell-based
[1] = target: T1, recombinant human ghrelin receptor (HEK293/GRLN) (Homo sapiens, UniProt Q92847); assay: Ghrelin inverse agonist potency (EC50) with IP-1 (IP-One HTRF) assay; details: IP-1 assay
T1 construct: expressed in transfected cells
Description: Evaluation of Ghrelin Inverse Agonist Potency (EC50) with IP-1 Assay:
HEK293 cells stably expressing recombinant human ghrelin receptor (HEK293/GRLN) were used in the IP-One HTRF assay. One day before the test, cells were seeded at a density of 1.5×10^4/well in a Matrigel® coated 384-well plate with 30 μL of complete Dulbecco's Modified Eagle's Medium and incubated at 37° C. in 5% CO2 for 18-22 hours. On the test day, the medium was removed by centrifugation at 600 rpm for 30 seconds, and 20 μL of stimulation buffer containing 1x tested compound was added with Bravo (Agilent technologies). The plate was then incubated at 37° C. 5% CO2 for 1 hour. After the incubation, 5 μL of IP1-d2 and 5 μL of Tb-Cryp were added to all wells using multidrop Combi(Thermo). After additional incubation at room temperature for 1 hour, the plates were read on Envision with 620 and 665 (Perkin Elmer).

[2] = target: T2, GHSR-1a (HEK293/GHSR1a cell line) (Homo sapiens, UniProt Q92847); assay: Ghrelin antagonist potency (IC50) with calcium FLIPR assay, ghrelin 10 nM
T2 construct: expressed in transfected cells; host or cells: HEK293/GHSR1a cell line
How it was run: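 In this assay, compound alone assesses agonism, while compound co-added with ghrelin at 10 nM assesses antagonism. In both modes the calcium-dye signal is tracked for 2 min from t=20 sec.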

[3] = target: T2, GHSR-1a (HEK293/GHSR1a cell line); assay: Ghrelin agonist potency (EC50) with calcium FLIPR assay; details: HEK293/GHSR1a, read-out: Activity EC50/EMax: EC50 (ghrelin agonist potency)
Description: Evaluation of Ghrelin Agonist (EC50) and Antagonist Potency (IC50) with Calcium FLIPR Assay:
The intracellular calcium assay was carried out in a 384-well format FLIPR™ (Molecular Device) HEK293/GHSR1a cell line. Cells were seeded 24 hr prior to the experiments at an optimal density per well. Preincubation with selected calcium dye lasted for 30-60 min at room temperature or 37° C. Test compounds, dissolved in DMSO, were added at the appropriate time and incubated for 15 min followed by the addition of ghrelin with FlexStation or FLIPR. Relative fluorescence was monitored by the FLIPR™ Molecular Device. EC50 and IC50 values were estimated from dose-response data using GraphPad Prism software. To check for GHSR-1a agonism, the compound was added at t=20 sec. and the calcium response was followed for 2 minutes. To check for GHSR-1a antagonism, the compound and Ghrelin (10 nM) were added to the cells at t=20 sec. and the calcium response was measured for 2 minutes. The potency of the antagonist was calculated by its ability to reduce the ghrelin response. Dose-response curves were made for relevant antagonists.

[4] = inverse agonist potency, read-out: EC50 (Activity)
[5] = ghrelin antagonist potency, read-out: IC50 (Activity)
[6] = HEK293/GHSR1a, ghrelin 10 nM, read-out: Activity IC50 (ghrelin antagonist potency)
[7] = ghrelin inverse agonist potency, read-out: Activity EC50
[8] = ghrelin antagonist potency, read-out: Activity IC50

T1 sequence (Q92847 whole entry): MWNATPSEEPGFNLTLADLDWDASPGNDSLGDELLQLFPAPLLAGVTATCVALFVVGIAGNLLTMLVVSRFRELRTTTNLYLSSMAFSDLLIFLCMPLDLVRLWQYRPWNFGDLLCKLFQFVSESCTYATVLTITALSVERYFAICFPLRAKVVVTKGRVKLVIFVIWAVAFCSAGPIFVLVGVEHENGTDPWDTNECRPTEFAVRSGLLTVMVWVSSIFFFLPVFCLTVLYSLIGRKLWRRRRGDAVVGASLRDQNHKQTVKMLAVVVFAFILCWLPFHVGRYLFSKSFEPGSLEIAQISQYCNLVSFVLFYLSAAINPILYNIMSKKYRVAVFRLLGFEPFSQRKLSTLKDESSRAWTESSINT
T2 sequence (Q92847 whole entry): as above

Compound	EC50 [1, 4]	IC50 [2, 5]	other results
CC(NC(=O)Nc1ccc(S(=O)(=O)Nc2ccc(CO)cc2)cc1)c1ccccc1 (stereo not drawn) [H1141, N-(4-(hydroxymethyl)phenyl)-4-(3-(1-phenylethyl)ureido) benzenesulfonamide]	0.562 µM	2.61 µM	
CC(NC(=O)Nc1ccc(S(=O)(=O)Nc2ccc3c(c2)CNC3)cc1)c1cccc2ccccc12 (stereo not drawn) [H1155, N-(isoindolin-5-yl)-4-(3-(1-(naphthalen-1-yl)ethyl)ureido) benzenesulfonamide]	0.00503 µM	0.0043 µM	
CC(C)NC(=O)Nc1ccc(S(=O)(=O)Cc2ccc3c(c2)CNC3)cc1 [H1178, 1-(4-((isoindolin-5-ylmethyl)sulfonyl)phenyl)-3-isopropylurea]	1.02 µM	4.89 µM	
CCNC(=O)Nc1ccc(S(=O)(=O)Cc2ccc3c(c2)CNC3)cc1 [H1180, 1-ethyl-3-(4-((isoindolin-5-ylmethyl)sulfonyl)phenyl)urea]	0.315 µM	14.7 µM	
C[C@H](NC(=O)Nc1ccc(S(=O)(=O)Cc2ccc(COS(=O)(=O)O)cc2)cc1)c1cccc(Cl)c1Cl [H1181, (S)-4-(((4-(3-(1-(2,3-dichlorophenyl)ethyl)ureido)phenyl)sulfonyl)methyl) benzyl hydrogen sulfate]	0.957 µM	3.31 µM	
O=C(Nc1ccccc1)Nc1ccc(S(=O)(=O)Cc2ccc3c(c2)CNC3)cc1 [H1190, 1-(4-((isoindolin-5-ylmethyl)sulfonyl)phenyl)-3-phenylurea]	0.317 µM	0.264 µM	
COc1ccc(CNC(=O)Nc2ccc(S(=O)(=O)Cc3ccc4c(c3)CNC4)cc2)cc1 [H1203, 1-(4-((isoindolin-5-ylmethyl)sulfonyl)phenyl)-3-(4-methoxybenzyl)urea]	0.161 µM	0.447 µM	
CN(Cc1ccccc1)C(=O)Nc1ccc(S(=O)(=O)Cc2ccc3c(c2)CNC3)cc1 [H1204, 1-benzyl-3-(4-((isoindolin-5-ylmethyl)sulfonyl)phenyl)-1-methylurea]	0.624 µM	0.692 µM	
CC(C)(C)NC(=O)Nc1ccc(S(=O)(=O)Cc2ccc3c(c2)CNC3)cc1 [H1205, 1-(tert-butyl)-3-(4-((isoindolin-5-ylmethyl)sulfonyl)phenyl)urea]	5.34 µM	9.87 µM	
CC(c1ccccc1)N(C)C(=O)Nc1ccc(S(=O)(=O)Cc2ccc3c(c2)CNC3)cc1 (stereo not drawn) [H1206, 3-(4-((isoindolin-5-ylmethyl)sulfonyl)phenyl)-1-methyl-1-(1-phenylethyl)urea]	0.252 µM	0.262 µM	
COc1ccc(CNC(=O)Nc2ccc(S(=O)(=O)Cc3ccc4c(c3)CNC4)cc2)nc1 [H1212, 1-(4-((isoindolin-5-ylmethyl)sulfonyl)phenyl)-3-((5-methoxypyridin-2-yl)methyl)urea]	1.78 µM	3.1 µM	
O=C(NCc1ccsc1)Nc1ccc(S(=O)(=O)Cc2ccc3c(c2)CNC3)cc1 [H1217, 1-(4-((isoindolin-5-ylmethyl)sulfonyl)phenyl)-3-(thiophen-3-ylmethyl)urea]	1.15 µM	1.45 µM	
CN1Cc2ccc(CS(=O)(=O)c3ccc(NC(=O)NCC(C)(C)C)cc3)cc2C1 [H1228, 1-(4-(((2-methylisoindolin-5-yl)methyl)sulfonyl)phenyl)-3-neopentylurea]	1.26 µM	0.766 µM	
CC(C)C(C)NC(=O)Nc1ccc(S(=O)(=O)Cc2ccc3c(c2)CN(C)C3)cc1 (stereo not drawn) [H1229, 1-(3-methylbutan-2-yl)-3-(4-(((2-methylisoindolin-5-yl)methyl)sulfonyl)phenyl)urea]	0.369 µM	0.291 µM	
CCN1Cc2ccc(C(C)(C)S(=O)(=O)c3ccc(NC(=O)NC(C)c4ccccc4)cc3)cc2C1 (stereo not drawn) [H1232, 1-(4-((2-(2-ethylisoindolin-5-yl)propan-2-yl)sulfonyl)phenyl)-3-(1-phenylethyl)urea]	0.31 µM	> 30 µM	
CC(NC(=O)Nc1ccc(S(=O)(=O)C(C)c2ccc3c(c2)CN(Cc2ccccc2)C3)cc1)c1ccccc1 (stereo not drawn) [H1233, 1-(4-((1-(2-benzylisoindolin-5-yl)ethyl)sulfonyl)phenyl)-3-(1-phenylethyl)urea]	0.17 µM	0.225 µM	
CC(C)CNC(=O)Nc1ccc(S(=O)(=O)Cc2ccc3c(c2)CN(C)C3)cc1 [H1236, 1-isobutyl-3-(4-(((2-methylisoindolin-5-yl)methyl)sulfonyl)phenyl)urea]	0.507 µM	1.64 µM	
CC(NC(=O)Nc1ccc(S(=O)(=O)Cc2ccc3c(c2)CN(C)C3)cc1)C1CC1 (stereo not drawn) [H1244, 1-(1-cyclopropylethyl)-3-(4-(((2-methylisoindolin-5-yl)methyl)sulfonyl)phenyl)urea]	0.356 µM	1.28 µM	
O=C(NC(=O)c1cc(N2CCOCC2)ccc1Cl)Nc1ccc(S(=O)(=O)Cc2ccc3c(c2)CNC3)cc1 [H1249, 2-chloro-N-((4-((isoindolin-5-ylmethyl)sulfonyl)phenyl)carbamoyl)-5-morpholinobenzamide]	1.63 µM	3.29 µM	
CCc1ccc(Cl)c(C(=O)NC(=O)Nc2ccc(S(=O)(=O)Cc3ccc(CO)cc3)cc2)c1 [H1255, 2-chloro-5-ethyl-N-((4-((4-(hydroxymethyl)benzyl)sulfonyl)phenyl)carbamoyl)benzamide]			EC50 [3]: > 30 µM; IC50 [2, 6]: 2.33 µM
CCc1ccc(Cl)c(C(=O)NC(=O)Nc2ccc(S(=O)(=O)Nc3ccc4c(c3)CNC4)cc2)c1 [H1259, 2-chloro-5-ethyl-N-((4-(N-(isoindolin-5-yl)sulfamoyl)phenyl)carbamoyl) benzamide]			EC50 [3]: > 30 µM; IC50 [2, 6]: 0.272 µM
CC(NC(=O)Nc1ccc(S(=O)(=O)N2CC3CNCC3C2)cc1)c1ccccc1 (stereo not drawn) [H1277, 1-(4-((hexahydropyrrolo[3,4-c]pyrrol-2(1H)-yl)sulfonyl)phenyl)-3-(1-phenylethyl)urea]			EC50 [3]: > 30 µM; IC50 [2, 6]: 8.76 µM
CC(NC(=O)Nc1ccc(S(=O)(=O)Cc2ccncc2)cc1)c1ccccc1 (stereo not drawn) [H1280, 1-(1-phenylethyl)-3-(4-((pyridin-4-ylmethyl)sulfonyl)phenyl)urea]			EC50 [3]: > 30 µM; IC50 [2, 6]: 0.905 µM
C[C@H](NC(=O)Nc1ccc2c(c1)CC(c1ccc3c(c1)CN(C)C3)S2(=O)=O)c1ccccc1 (stereo partly drawn) [H1285, 1-(2-(2-methylisoindolin-5-yl)-1,1-dioxido-2,3-dihydrobenzo[b]thiophen-5-yl)-3-((S)-1-phenylethyl)urea]			EC50 [3]: 0.147 µM; IC50 [2, 6]: 0.065 µM
CC(NC(=O)Nc1ccc(S(=O)(=O)Cc2ccc3c(c2)CNC3=O)cc1)c1ccccc1 (stereo not drawn) [H1292, 1-(4-(((1-oxoisoindolin-5-yl)methyl)sulfonyl)phenyl)-3-(1-phenylethyl)urea]			EC50 [3]: > 30 µM; IC50 [2, 6]: > 30 µM
CC(NC(=O)Nc1ccc(S(=O)(=O)Cc2ccc3c(c2)C(N2CCCC2)CC3)cc1)c1ccccc1 (stereo not drawn) [H1294, 1-(1-phenylethyl)-3-(4-(((3-(pyrrolidin-1-yl)-2,3-dihydro-1H-inden-5-yl)methyl)sulfonyl)phenyl)urea]			EC50 [3]: 12.9 µM; IC50 [2, 6]: 3.32 µM
C[C@H](NC(=O)Nc1ccc(S(=O)(=O)Cc2ccc(CN3CCC(O)C3)cc2)cc1)c1ccccc1 (stereo partly drawn) [H1313, 1-(4-((4-((3-hydroxypyrrolidin-1-yl)methyl)benzyl)sulfonyl)phenyl)-3-((S)-1-phenylethyl)urea]			EC50 [3]: > 30 µM; IC50 [2, 6]: 1.46 µM
COc1ccc(C(C)NC(=O)Nc2ccc(S(=O)(=O)Cc3ccc4c(c3)CNC4)cc2)cc1Cl (stereo not drawn) [H1477, 1-(1-(3-chloro-4-methoxyphenyl)ethyl)-3-(4-((isoindolin-5-ylmethyl)sulfonyl)phenyl)urea]			EC50 [1, 7]: 0.0174 µM; IC50 [2, 8]: 0.0369 µM
CC(c1ccccc1)N(O)C(=O)Nc1ccc(S(=O)(=O)Cc2ccc3c(c2)CNC3)cc1 (stereo not drawn) [H1526, 1-hydroxy-3-(4-((isoindolin-5-ylmethyl)sulfonyl)phenyl)-1-(1-phenylethyl)urea]			EC50 [1, 7]: 0.0219 µM; IC50 [2, 8]: 0.0319 µM
CC(c1ccccc1)N(O)C(=O)Nc1ccc(S(=O)(=O)Cc2ccc3c(c2)CN(C)C3)cc1 (stereo not drawn) [H1527, 1-hydroxy-3-(4-(((2-methylisoindolin-5-yl)methyl)sulfonyl)phenyl)-1-(1-phenylethyl)urea]			EC50 [1, 7]: 0.034 µM; IC50 [2, 8]: 0.13 µM
